Reference: US10487045B2, “Adamantane derivative and use thereof” (TOHOKU UNIVERSITY, priority 2016, dated 2019)

What was measured:
Assay type in all cases: in vivo
[1] = system: ob/ob; assay: Hypoglycemic effect, blood glucose level by assay kit; conditions: 1 mg/kg chronic treatment for 4 weeks; effect on and after 3 weeks; vs ob/ob (saline)
Experimental: A hypoglycemic effect by TP-014 was checked by measuring the blood glucose level by an assay kit (manufactured by Technicon International co). The measurement was carried out for 4 weeks. […] As a control, tolbutamide was used. Kir6.2 channel binds to SUR1 ([…]) on the cell membrane to form a channel. Action mechanism is considered due to Kir6.2 channel inhibitory action. Tolbutamide binds to SUR1 to inhibit Kir6.2 channel.

[2] = system: APP23 mice; assay: Y-maze method in Alzheimer's disease model mice; conditions: APP23 mice 12 months old, 1 mg/kg orally once a day for two months
Experimental: To Alzheimer's disease model mice (APP23 mice, Sturchler-Pierrat et al., Proc. Natl. Acad. Sci. U.S.A. 1997, 94, 13287-13292)(12 months old), TP-014 (1 mg/kg) was orally administered once a day for two months (chronic treatment). […] FIGS. 4a-d show the results of behavior analysis. FIG. 4a and FIG. 4b show attentional function analyzed on WT mice (C57BL/6J, Japan SLC) and APP23 mice (n=5 per group) by an ordinary Y-maze method. […] The Y-maze method is a method of allowing mice to freely walk on three arms for 8 minutes. The arms will be provisionally designated as A, B, C, respectively. A mouse positioned on A will move to B or C (arm). […] The arms to which a mouse moved are recorded in chronological order and the number of times a mouse moves to each of the arms within a predetermined time is counted and determined as “total arm entries”. Of them, the number of the right-answer cases (the case where a mouse consecutively chooses three different arms) was counted and determined as the number of alternating behaviors (“No. of alternation”). The ratio of “No. of alternation” to the number obtained by subtracting 2 from the “total arm entries” is expressed as alternation (%) and used as the normal alternate behavior index (spatial working memory correct answer ratio). […]

[3] = system: Kir6.1 defective mice; assay: Tail-suspension and forced swim methods in Kir6.1 defective mice (hetero-type); conditions: chronic treatment
Experimental: (§1) OBX mice were originally established as depression model mice although a deterioration of cognitive function was observed. Depression was analyzed by a tail-suspension method (a) and a forced swim method (b). The tail-suspension method is a method of pinching the tail of a mouse and hanging the mouse upside down. If the mouse hung has depression, immobility time is long. Since a normal mouse moves even if it is hung, the immobility time is short. In the forced swim method, a mouse is forced to swim in water in a beaker. A mouse having depression neither swims nor moves (just floating). Thus the immobility time is measured. Immobility time was long in OBX mice both in the tail-suspension method (a) and the forced swim method (b). The immobility time of a TP-014 chronic administration group (2 weeks, in the same administration method as that previously mentioned) was improved.
Immobility time of Kir6.1 defective mice (hetero-type, n=5 per group) was measured by the tail-suspension method (a) and the forced swim method (b) in the same manner as in FIGS. 11a and 11b. The hetero-type mice are the mice in which the expression level of Kir6.1 channel is half (the homo type mice develops arrhythmia after birth and dies) in contrast to the homo type mice (complete defective mice). […] The chronic treatment with TP-014 was not effective. […]

[4] = system: CaMKIV defective mice; assay: Tail-suspension and forced swim methods in CaMKIV defective mice
Experimental: as §1
CaMKIV induced by Kir6.1 channel was analyzed by using CaMKIV defective mice (n=5, per group*) in the same manner as in FIG. 12. Acceleration of depression-like symptom was observed also in the CaMKIV defective mice. […] TP-014 had no effect on CaMKIV depression-like symptom (increase of immobility time). […] CaMKIV defective mice were obtained from professor, Hiroyuki Sakagami, Kitasato University School of Medicine (Takao K et al., PLoS One 2010, 5, e9460).

[5] = system: APP23 mice; assay: Aβ aggregation in brain slices, staining with 6E10 and thioflavin; conditions: APP23 mice (14 months old), chronic treatment, brain slice sections
From the text: The hypothesis that amyloid-β (Aβ) is a cause of Alzheimer's disease has now still important. AP aggregation, which occurs in APP23 mice (14 months old) was confirmed by immunostaining. The brains of a WT (control mouse) and APP23 mouse were cut into slice sections of 50 micrometers in thickness. The slice sections were stained with 6E10 (Aβ antibody, manufactured by Abeam) and thioflavin. The conditions other than the above were the same as in the ordinary immunostaining method. […] In contrast, aggregation was not virtually observed in the hippocampus (CA1). Aβ aggregation was inhibited by TP-014 chronic treatment.

O=C(N[C@@H](c1ccccc1)[C@H]1[C@H]2C[C@@H]3C[C@](Cl)(C2)C[C@@]1(OC(=O)C(F)(F)F)C3)C(F)(F)F [TP-014, (1S,2R,3S,5S,7S)-5-chloro-2-((R)-phenyl(2,2,2-trifluoroacetamido)methyl)adamantan-1-yl 2,2,2-trifluoroacetate]
blood glucose level [1]: significantly decreased | attentional function (alternation, Y-maze) [2]: significant attentional function improvement effect | depression-like symptom, immobility time in Kir6.1 defective mice [3]: not effective | depression-like symptom (increase of immobility time) in CaMKIV defective mice [4]: no effect | Aβ aggregation [5]: inhibited
